SMILES strings stand for the structures.

This assay relates to RAW264.7. In words: Inhibition of LPS-induced nitric oxide production in mouse RAW264.7 cells preincubated with compound for 1 hr before exposure to LPS measured after 24 hrs by Griess reaction method. The assay is classed as functional, cell-based. A general note: Nitrite, measured by Griess reagent, commonly stands in for NO production.
A word on the IC50: it is the point on the concentration scale where inhibition reaches its midpoint. For the compound `COc1cc([C@H]2OC[C@H]3[C@@H]2CO[C@@H]3c2cc(OC)c(O[C@H](CO)[C@@H](O)c3ccc(O)c(OC)c3)c(OC)c2)ccc1O` [HEDYOTOL C], the IC50 is 21.4 µM.

In the case of `COc1cc([C@H]2OC[C@H]3[C@@H]2CO[C@@H]3c2cc(OC)c(OC)c(OC)c2)cc(OC)c1O`, the IC50 is 15.8 µM.

In the case of `COc1cc([C@H]2Oc3c(OC)cc(CCCO)cc3[C@@H]2CO)ccc1O` [DIHYDRODEHYDRODICONIFERY ALCOHOL], the IC50 was 9.8 µM.

For the compound `COc1cc([C@@H]2Oc3c(OC)cc(/C=C/CO)cc3[C@H]2CO)cc(OC)c1O`, the IC50 was 12.8 µM.

Take `COc1cc([C@H]2OC[C@H]3[C@@H]2CO[C@@H]3c2cc(OC)c(O)c(OC)c2)cc(OC)c1O` [SYRINGARESINOL]: the IC50 is 14.8 µM.

For the compound `COc1cc([C@H](O)[C@@H](CO)Oc2c(OC)cc(/C=C/CO)cc2OC)cc(OC)c1O`, the IC50 turned out to be 57.9 µM.

Take `COc1cc([C@@H](O)[C@@H](CO)Oc2ccc(CCCO)cc2OC)ccc1O`: the IC50 was determined as 63.4 µM.

As to `COc1cc([C@@H]2c3c(cc(OC)c(O)c3OC)C[C@@H](CO)[C@@H]2CO)cc(OC)c1O`, the IC50 came to 55.5 µM.

With `COc1cc(C(OC)C(CO)OC(CO)Cc2cc(OC)c(O)c(OC)c2)ccc1O` (single isomer, unassigned; (-)), the IC50 came to 44.3 µM.

As to `COc1cc([C@H]2Oc3c(OC)cc(/C=C/CO)cc3[C@@H]2CO)cc(OC)c1O`, the IC50 amounted to 11.7 µM.

Take `COc1cc([C@H](O)[C@H](CO)Oc2ccc(CCCO)cc2OC)ccc1O`: the IC50 amounted to 69.2 µM.

Regarding `COc1cc(C(O)C(CO)Oc2c(OC)cc(C3OCC4C(c5cc(OC)c(OC(CO)C(O)c6ccc(O)c(OC)c6)c(OC)c5)OCC34)cc2OC)ccc1O` (stereo not given) [HEDYOTISOL B], the IC50 is more than 100 µM.

As for `COc1cc([C@@H](O)[C@H](CO)Oc2ccc(/C=C/CO)cc2OC)ccc1O`, the IC50 turned out to be 63.6 µM.

Turning to `COc1cc(C(O)C(CO)Oc2c(OC)cc(C3Oc4c(OC)cc(/C=C/CO)cc4C3CO)cc2OC)ccc1O` (stereo not given), the IC50 worked out at 21.3 µM.

In the case of `COc1cc(CC(CO)OC(CO)C(OC)c2cc(OC)c(O)c(OC)c2)ccc1O` (stereo not given), the IC50 amounted to 41.9 µM.

For `COc1cc([C@H](O)[C@@H](CO)Oc2ccc(/C=C/CO)cc2OC)ccc1O`, the IC50 came to 66.4 µM.

As for `COc1cc([C@H](O)[C@H](CO)Oc2c(OC)cc(/C=C/CO)cc2OC)ccc1O`, the IC50 was found to be 58.2 µM.

`COc1cc([C@@H]2Oc3c(OC)cc(/C=C/CO)cc3[C@H]2CO)ccc1O` [DEHYDROCONIFERYL ALCOHOL]: the IC50 was 8.5 µM.

For `COc1cc([C@H]2Oc3c(OC)cc(/C=C/CO)cc3[C@@H]2CO)ccc1O`, the IC50 was 9.3 µM.

Take `COC(=O)[C@@H](N)CCCNC(=N)N[N+](=O)[O-]` [L-NAME]: the IC50 was 48.5 µM.
